In US8362031B2, “Lonidamine analogues and treatment of polycystic kidney disease” (University of Kansas, priority 2004, dated 2013):

Legend:
[1] = tested on: Male Long Evans rats; experiment: In vivo antispermatogenic testing in Long Evans rats; conditions: for Mortality (25 mg/kg) / Response 25 mg/kg: 25 mg/kg single i.p. injection; for Response 25 mg/kg / Response 200 mg/kg: animals responding out of animals surviving, five days following injection; for Mortality (200 mg/kg) / Response 200 mg/kg: 200 mg/kg single i.p. injection; for Staging 25 mg/kg / Staging 200 mg/kg: seminiferous tubule staging; for Staging 25 mg/kg: 25 mg/kg i.p.; for Staging 200 mg/kg: 200 mg/kg i.p.
[2] = tested on: Salmonella Typhimurium TA 100; experiment: Ames test for mutagenicity (plate assay, colony count); conditions: 48 hours at 37° C.; for Ames test (+)S9 0.1 mg/pl. / Ames test (+)S9 1 mg/pl. / Ames test (+)S9 10 mg/pl.: (+)S9 mix; for Ames test (−)S9 0.1 mg/pl. / Ames test (−)S9 1 mg/pl. / Ames test (−)S9 10 mg/pl.: (−)S9 mix

NNC(=O)c1nn(Cc2ccc(Cl)cc2Cl)c2ccccc12 [AF2364, reference compound]
0/5: Mortality (25 mg/kg) [1] | Mortality (200 mg/kg) [1]
3/5: Response 25 mg/kg [1]
5/5: Response 200 mg/kg [1]
2.1: Staging 200 mg/kg [1]
3.5: Staging 25 mg/kg [1]

O=C(O)/C=C/c1nn(Cc2ccc(Cl)cc2Cl)c2ccccc12 [AF2785, reference compound]
0/5: Mortality (25 mg/kg) [1]
1/5: Response 25 mg/kg [1]
5.5: Staging 25 mg/kg [1]
2/6: Mortality (200 mg/kg) [1]
3.4: Staging 200 mg/kg [1]
3/4: Response 200 mg/kg [1]

O=C(O)c1nn(Cc2ccc(Cl)cc2Cl)c2cc(Cl)ccc12 [DD-MC-I, 6-chloro-1-(2,4-dichlorobenzyl)-1H-indazole-3-carboxylic acid]
2/5: Response 200 mg/kg [1]
Pass: Ames test (+)S9 0.1 mg/pl. [2] | Ames test (+)S9 1 mg/pl. [2] | Ames test (+)S9 10 mg/pl. [2] | Ames test (−)S9 0.1 mg/pl. [2] | Ames test (−)S9 1 mg/pl. [2] | Ames test (−)S9 10 mg/pl. [2]
0/5: Mortality (25 mg/kg) [1] | Response 25 mg/kg [1] | Mortality (200 mg/kg) [1]

COC(=O)c1nn(Cc2ccc(Cl)cc2Cl)c2ccc(C(F)(F)F)cc12 [JWS-1-254, 1-(2,4-dichlorobenzyl)-5-trifluoromethyl-1H-indazole-3-carboxylic acid methyl ester]
Pass: Ames test (+)S9 0.1 mg/pl. [2] | Ames test (+)S9 1 mg/pl. [2] | Ames test (+)S9 10 mg/pl. [2] | Ames test (−)S9 0.1 mg/pl. [2] | Ames test (−)S9 1 mg/pl. [2] | Ames test (−)S9 10 mg/pl. [2]
0/5: Mortality (25 mg/kg) [1] | Response 25 mg/kg [1] | Mortality (200 mg/kg) [1] | Response 200 mg/kg [1]

COC(=O)c1nn(Cc2ccc(F)cc2F)c2cc(C(F)(F)F)ccc12 [JWS-1-270, 1-(2,4-difluorobenzyl)-6-trifluoromethyl-1H-indazole-3-carboxylic acid methyl ester]
Pass: Ames test (+)S9 0.1 mg/pl. [2] | Ames test (+)S9 1 mg/pl. [2] | Ames test (+)S9 10 mg/pl. [2] | Ames test (−)S9 0.1 mg/pl. [2] | Ames test (−)S9 1 mg/pl. [2] | Ames test (−)S9 10 mg/pl. [2]
0/5: Mortality (25 mg/kg) [1] | Response 25 mg/kg [1] | Mortality (200 mg/kg) [1] | Response 200 mg/kg [1]

NNC(=O)c1nn(Cc2ccc(F)cc2F)c2cc(C(F)(F)F)ccc12 [JWS-1-274, 1-(2,4-difluorobenzyl)-6-trifluoromethyl-1H-indazole-3-carboxylic acid hydrazide]
Pass: Ames test (+)S9 0.1 mg/pl. [2] | Ames test (+)S9 1 mg/pl. [2] | Ames test (+)S9 10 mg/pl. [2] | Ames test (−)S9 0.1 mg/pl. [2] | Ames test (−)S9 1 mg/pl. [2] | Ames test (−)S9 10 mg/pl. [2]
0/5: Mortality (25 mg/kg) [1] | Response 25 mg/kg [1] | Mortality (200 mg/kg) [1] | Response 200 mg/kg [1]

O=C(O)c1nn(Cc2ccc(F)cc2F)c2cc(C(F)(F)F)ccc12 [JWS-1-276, 1-(2,4-difluorobenzyl)-6-trifluoromethyl-1H-indazole-3-carboxylic acid]
0/5: Mortality (25 mg/kg) [1] | Response 25 mg/kg [1] | Mortality (200 mg/kg) [1] | Response 200 mg/kg [1]
Pass: Ames test (+)S9 0.1 mg/pl. [2] | Ames test (+)S9 1 mg/pl. [2] | Ames test (+)S9 10 mg/pl. [2] | Ames test (−)S9 0.1 mg/pl. [2] | Ames test (−)S9 1 mg/pl. [2] | Ames test (−)S9 10 mg/pl. [2]

COC(=O)c1nn(Cc2ccc(F)cc2F)c2cc(Cl)ccc12 [JWS-1-280, 1-(2,4-difluorobenzyl)-6-chloro-1H-indazole-3-carboxylic acid methyl ester]
0/5: Mortality (25 mg/kg) [1] | Response 25 mg/kg [1] | Mortality (200 mg/kg) [1] | Response 200 mg/kg [1]
Pass: Ames test (+)S9 0.1 mg/pl. [2] | Ames test (+)S9 1 mg/pl. [2] | Ames test (+)S9 10 mg/pl. [2] | Ames test (−)S9 0.1 mg/pl. [2] | Ames test (−)S9 1 mg/pl. [2] | Ames test (−)S9 10 mg/pl. [2]

COC(=O)c1nn(Cc2ccc(F)cc2Cl)c2cc(Cl)ccc12 [JWS-2-18, 1-(2-chloro-4-fluorobenzyl)-6-chloro-1H-indazole-3-carboxylic acid methyl ester]
Pass: Ames test (+)S9 0.1 mg/pl. [2] | Ames test (−)S9 0.1 mg/pl. [2] | Ames test (−)S9 1 mg/pl. [2]
Mar-: Ames test (−)S9 10 mg/pl. [2]
Fail: Ames test (+)S9 1 mg/pl. [2] | Ames test (+)S9 10 mg/pl. [2]

O=C(O)c1nn(Cc2ccc(F)cc2Cl)c2cc(Cl)ccc12 [JWS-2-20, 1-(2-chloro-4-fluorobenzyl)-6-chloro-1H-indazole-3-carboxylic acid]
Mar-: Ames test (−)S9 0.1 mg/pl. [2]
Pass: Ames test (+)S9 0.1 mg/pl. [2]
Fail: Ames test (+)S9 1 mg/pl. [2] | Ames test (+)S9 10 mg/pl. [2] | Ames test (−)S9 1 mg/pl. [2] | Ames test (−)S9 10 mg/pl. [2]

O=C(O)/C=C/c1nn(Cc2ccc(F)cc2Cl)c2cc(Cl)ccc12 [JWS-2-36, 3-[1-(2-chloro, 4-fluorobenzyl)-6-chloro-1H-indazol-3-yl]-acrylic acid]
Fail: Ames test (−)S9 1 mg/pl. [2]
Pass: Ames test (+)S9 0.1 mg/pl. [2] | Ames test (+)S9 1 mg/pl. [2] | Ames test (+)S9 10 mg/pl. [2] | Ames test (−)S9 0.1 mg/pl. [2] | Ames test (−)S9 10 mg/pl. [2]

O=C(O)/C=C/c1nn(Cc2ccc(F)cc2Cl)c2cc(C(F)(F)F)ccc12 [JWS-2-40, 3-[1-(2-chloro, 4-fluorobenzyl)-6-trifluoromethyl-1H-indazol-3-yl]-acrylic acid]
Mar-: Ames test (−)S9 10 mg/pl. [2]
Pass: Ames test (+)S9 0.1 mg/pl. [2] | Ames test (+)S9 1 mg/pl. [2] | Ames test (+)S9 10 mg/pl. [2] | Ames test (−)S9 0.1 mg/pl. [2] | Ames test (−)S9 1 mg/pl. [2]

NNC(=O)c1nn(Cc2ccc(Cl)cc2Cl)c2ncccc12 [RC-MC-60, 1-(2,4-dichlorobenzyl)-1H-pyrazolo[3,4-b]pyridine-3-carboxylic acid hydrazide]
Pass: Ames test (+)S9 0.1 mg/pl. [2] | Ames test (+)S9 1 mg/pl. [2] | Ames test (+)S9 10 mg/pl. [2] | Ames test (−)S9 0.1 mg/pl. [2] | Ames test (−)S9 1 mg/pl. [2] | Ames test (−)S9 10 mg/pl. [2]
0/5: Mortality (25 mg/kg) [1] | Response 25 mg/kg [1] | Mortality (200 mg/kg) [1] | Response 200 mg/kg [1]

O=C(O)/C=C/c1nn(Cc2ccc(Cl)cc2Cl)c2ncccc12 [RC-MC-65, 3-[1-(2,4-dichlorobenzyl)-1H-pyrazolo[3,4-b]pyridine-3-yl]-acrylic acid]
Fail: Ames test (+)S9 1 mg/pl. [2] | Ames test (+)S9 10 mg/pl. [2] | Ames test (−)S9 1 mg/pl. [2] | Ames test (−)S9 10 mg/pl. [2]
Pass: Ames test (+)S9 0.1 mg/pl. [2] | Ames test (−)S9 0.1 mg/pl. [2]

O=C(O)c1nn(Cc2ccc(Cl)cc2Cl)c2ncccc12 [RC-MC-86, 1-(2,4-dichlorobenzyl)-1H-pyrazolo[3,4-b]pyridine-3-carboxylic acid]
5/5: Response 200 mg/kg [1]
Pass: Ames test (+)S9 0.1 mg/pl. [2] | Ames test (+)S9 1 mg/pl. [2] | Ames test (+)S9 10 mg/pl. [2] | Ames test (−)S9 0.1 mg/pl. [2] | Ames test (−)S9 1 mg/pl. [2] | Ames test (−)S9 10 mg/pl. [2]
0/5: Mortality (25 mg/kg) [1] | Response 25 mg/kg [1] | Mortality (200 mg/kg) [1]

NNC(=O)c1nn(Cc2ccc(Cl)cc2Cl)c2cc(C(F)(F)F)ccc12 [RC-MC-101, 1-(2,4-dichlorobenzyl)-6-trifluoromethyl-1H-indazole-3-carboxylic acid hydrazide]
0/5: Mortality (25 mg/kg) [1] | Response 25 mg/kg [1] | Mortality (200 mg/kg) [1] | Response 200 mg/kg [1]
Pass: Ames test (+)S9 0.1 mg/pl. [2] | Ames test (+)S9 1 mg/pl. [2] | Ames test (+)S9 10 mg/pl. [2] | Ames test (−)S9 0.1 mg/pl. [2] | Ames test (−)S9 1 mg/pl. [2] | Ames test (−)S9 10 mg/pl. [2]

COC(=O)C=Cc1nn(Cc2ccc(Cl)cc2Cl)c2cc(C(F)(F)F)ccc12 [RC-MC-200]
Fail: Ames test (+)S9 1 mg/pl. [2] | Ames test (+)S9 10 mg/pl. [2]
Pass: Ames test (+)S9 0.1 mg/pl. [2] | Ames test (−)S9 0.1 mg/pl. [2] | Ames test (−)S9 1 mg/pl. [2] | Ames test (−)S9 10 mg/pl. [2]

NNC(=O)/C=C/c1nn(Cc2ccc(Cl)cc2Cl)c2cc(C(F)(F)F)ccc12 [RC-MC-205, 3-[1-(2,4-dichlorobenzyl)-6-trifluoromethyl-1H-indazol-3-yl]-acrylic acid hydrazide]
Fail: Ames test (+)S9 1 mg/pl. [2] | Ames test (+)S9 10 mg/pl. [2] | Ames test (−)S9 1 mg/pl. [2]
Mar-: Ames test (−)S9 10 mg/pl. [2]
Pass: Ames test (+)S9 0.1 mg/pl. [2] | Ames test (−)S9 0.1 mg/pl. [2]
